Results published in PMC10051705, “Leishmanicidal Activity of Guanidine Derivatives against Leishmania infantum” (Tropical Medicine and Infectious Disease, 2023).
Marks after values point to notes of the source that are not given here.

Legend:
[1] = test system: L. infantum axenic amastigotes; test: axenic amastigote inhibition assay (MTT); format: cell-based; settings: Leishmania infantum, 24 h; for EC50: 37 °C, pH 5.5, MTT; for inhibition at 31.2 µM: read-out: inhibition of axenic amastigotes compared to the control (untreated)
[2] = test system: L. infantum promastigotes; test: apoptosis/necrosis profiling, annexin V/PI staining, promastigotes; format: cell-based, Leishmania infantum
Experimental: (§1) To evaluate both apoptosis and necrosis, promastigote forms of L. infantum in the log phase of growth were incubated at several concentrations based on the IC50 values of LQOFG-2 (6.35; 12.7, 25.4, and 50.8 µM) LQOFG-6 (12.2, 24.4, 48.8 and 97.6 µM), and LQOFG-7 (11.65, 23.3, 46.6 and 93.2 µM), and AmB (1.5 and 6 µM) was used as the positive control. The plates were incubated for 24 h at 26 °C ± 1 °C in a B.O.D. incubator. After incubation, the promastigotes were washed three times in cold PBS, resuspended in binding buffer (10-mM HEPES, 140-mM NaCl, and 2.5-mM CaCl2, pH 7.4), and stained using a FITC Annexin V/Dead Cell Apoptosis Kit (BD Biosciences, San Jose, CA, USA) according to the manufacturer’s instructions. The stained cells were diluted and suspended in an Annexin V binding buffer (BD Biosciences, San Jose, CA, USA). Annexin V-FITC/propidium iodide (PI)-stained cells were analyzed using a BD FACSCanto II flow cytometer (BD Biosciences, San Jose, CA, USA). The raw data were analyzed using FlowJo 10.0.7 software (TreeStar Inc., Ashland, OR, USA).

[3] = test system: L. infantum promastigotes; test: promastigote growth inhibition assay (MTT); format: cell-based; settings: Leishmania infantum, 72 h, 26 °C
Experimental: The promastigote forms of Leishmania (Leishmania) infantum [IOC/L0579(MHOM/BR/1974/PP75)] were cultured in Schneider’s medium, pH 7.0, supplemented with 20% heat-inactivated fetal bovine serum (FBS), 2% male human urine, 100 U/mL of penicillin, and 100 mg/L of streptomycin, and the parasites were maintained at 26 °C. The procedure to obtain the extracellular axenic amastigote form of L. infantum was based on methods previously described that were modified using a Schneider medium readjusted to pH 5.5 at 37 °C. The culture of promastigote forms in the stationary phase was centrifuged, and the medium of these cells was replaced and differentiated into axenic amastigotes by temperature and medium pH changes. Parasites were maintained in culture for no more than 20 passages.
The promastigote growth inhibition assay was performed as previously described. Promastigotes were harvested during the exponential growth phase. They were incubated in the presence and absence of several concentrations of LQOFG-2, LQOFG-6, LQOFG-7 (500 to 7.8 µM), and AmB (10 to 0.078 µM) as the positive control. The plate was incubated at 26 °C for 72 h in a biological oxygen demand (B.O.D.) incubator using a Schneider’s medium (Schneider’s Insect Medium 24.5 g/L; L-glutamine 1.8 g/L; glucose 2 g/L and sodium bicarbonate 0.4 g/L; Sigma-Aldrich—St. Louis—USA) supplemented. The growth inhibition was evaluated using an MTT assay kit (Amresco, Solon, OH, USA) according to the manufacturer’s protocol. After 4 h of incubation, 10% sodium dodecyl sulfate was added to dissolve the formazan crystals. The absorbance (540 nm) was measured using a plate reader (Biosystems model ELx800; Curitiba, PR, Brazil). […] Three independent experiments we performed in triplicate.

[4] = test system: human red blood cells; test: red blood cell lysis assay; format: cell-based; settings: 1 h, 37 °C
Experimental: The hemolytic activities of guanidine compounds were measured using human red blood cells from healthy adults (n = 3) according to methods previously described. Briefly, 80 µL of a 5% erythrocyte/phosphate-buffered saline (PBS) suspension was mixed with 20 µL of LQOFG-2, LQOFG-6, LQOFG-7, (1000 to 7.8 µM), and AmB (100 to 0.78 µM). After incubation at 37 °C for 1 h, 200 µL of PBS (1.5 mM KH2PO4, 8.1 mM Na2HPO4, 136.9 mM NaCl, and 2.6 mM KCl, pH 7.2) was added to stop the hemolysis process, and the samples were centrifuged for 10 min at 1000× g. The supernatants were collected, and the extent of hemolysis was measured spectrophotometrically at 540 nm. The hemolysis percentage was determined as [(Abssam − Abscon)/(Abstot − Abscon) × 100], where Abssam is the absorbance of the sample, Abscon is the absorbance of the blank control (without drugs), and Abstot is the absorbance of total hemolysis (replacing the sample solution with an equal volume of ultrapure water (Direct-Q UV®, Guyancourt, France)).

[5] = test system: L. infantum axenic amastigotes; test: apoptosis/necrosis profiling, annexin V/PI staining, axenic amastigotes; format: cell-based, Leishmania infantum
Experimental: as §1
To evaluate both apoptosis and necrosis of the amastigote-like forms of L. infantum, the protocol was followed. In each well, amastigotes were treated with the guanidine compounds and controls.

[6] = in vitro cytotoxicity in PBMC (MTT); format: cell-based, human; settings: both sexes, human, peripheral blood mononuclear cells (PBMCs), human PBMC, 24 h, MTT
Experimental: (§2) In vitro cytotoxicity was evaluated using peripheral blood mononuclear cells (PBMCs) collected from three healthy volunteers (2 males, mean age 33; and 1 person). PBMCs were separated by density gradient using Ficoll Paque PLUS (GE Healthcare, USA), pelleted by centrifugation (400× g for 40 min), and resuspended in RPMI 1640 medium, then supplemented with 10% fetal bovine serum and 1% antibiotic solution (penicillin 5000 Units/mL + streptomycin 5000 μg/mL). After 24 h of treatment, cell viability was evaluated by the modified colorimetric method based on the tetrazolium dye MTT (3-(4,5-dimethylthiazol-2-yl)-2,5- diphenyltetrazolium bromide). The MTT assay was used for in vitro cytotoxicity as previously described with the following modifications: cells were exposed to serially diluted concentrations of LQOFG-2, LQOFG-6, LQOFG-7 (1000 to 7.8 µM), and AmB (100 to 0.78 µM). The plates were kept at 37 °C for 24 h. MTT (5 mg/mL) was added and incubated for 4 h at 37 °C, after which the plates were centrifuged, the supernatant was discarded, and DMSO was added, leaving the plates under stirring to solubilize the formazan salts. Absorbance was measured at 540 nm using a plate reader (ELx800; Curitiba, PR, Brazil). The mean percentage of viable cells was calculated relative to the untreated control.

[7] = test system: peripheral blood mononuclear cells (PBMCs); test: in vitro cytotoxicity in PBMC (MTT); format: cell-based, human; settings: CC50 PBMC / EC50 axenic amastigotes
Experimental: as §2

Row | Structure (SMILES) | EC50 [1] [µM] | inhibition at 31.2 µM [1] [%] | % cells, Early Apoptosis (AV+, PI−) ([2]; 0.5× IC50, 24 h) [%] | % cells, Late Apoptosis (AV+, PI+) ([2]; 0.5× IC50, 24 h) [%] | % cells, Necrosis (AV−, PI+) ([2]; 0.5× IC50, 24 h) [%] | % cells, Early Apoptosis (AV+, PI−) ([2]; 1× IC50, 24 h) [%] | % cells, Late Apoptosis (AV+, PI+) ([2]; 1× IC50, 24 h) [%] | % cells, Necrosis (AV−, PI+) ([2]; 1× IC50, 24 h) [%] | % cells, Early Apoptosis (AV+, PI−) ([2]; 2× IC50, 24 h) [%] | % cells, Late Apoptosis (AV+, PI+) ([2]; 2× IC50, 24 h) [%] | % cells, Early Apoptosis (AV+, PI−) ([2]; 4× IC50, 24 h) [%] | % cells, Late Apoptosis (AV+, PI+) ([2]; 4× IC50, 24 h) [%] | IC50 [3] [µM] | HC50, toxicity to red blood cells [4] [µM] | % cells, Early Apoptosis (AV+, PI−) ([5]; 0.5 × EC50, 24 h) | % cells, Late Apoptosis (AV+, PI+) ([5]; 0.5 × EC50, 24 h) | % cells, Early Apoptosis (AV+, PI−) ([5]; 1 × EC50, 24 h) | % cells, Late Apoptosis (AV+, PI+) ([5]; 1 × EC50, 24 h) | % cells, Necrosis (AV−, PI+) ([5]; 1 × EC50, 24 h) [%] | % cells, Early Apoptosis (AV+, PI−) ([5]; 2 × EC50, 24 h) | also measured
1 | O=C(/N=C(/NCc1ccccc1)Nc1ccc(Br)cc1)c1ccccc1 [LQOFG-2, (Z)-N-((benzylamine)((4-bromophenyl)amino)methylene)benzamide] | 26.1 ± 1.22 | 57.7 | 0.27± 0.09 | 0.55 ± 0.04 | 1.69 ± 0.28 | 0.12 ± 0.02 | 0.41 ± 0.14 | 2.07 ± 0.23 | 0.35 ± 0.01 | 0.78 ± 0.15 | 0.34 ± 0.09 | 0.63 ± 0.12 | 12.7 ± 0.25 | >1000 | 5.68 ± 0.29 ^a % | 31.43 ± 0.03 ^b % | 8.13 ± 0.84 ^d % | 33.23 ± 0.73 ^c % | 11.97 ± 0.66 | 7.68 ± 0.39 ^d % | % cells, Necrosis (AV−, PI+) ([2]; 2× IC50, 24 h): 1.52 ± 0.24%; % cells, Necrosis (AV−, PI+) ([2]; 4× IC50, 24 h): 1.79 ± 0.59%; % cells, Necrosis (AV−, PI+) ([5]; 0.5 × EC50, 24 h): 13.20 ± 1.62%; % cells, Late Apoptosis (AV+, PI+) ([5]; 2 × EC50, 24 h): 56.27 ± 1.51 ^d %; % cells, Necrosis (AV−, PI+) ([5]; 2 × EC50, 24 h): 15.93 ± 1.02%; % cells, Early Apoptosis (AV+, PI−) ([5]; 4 × EC50, 24 h): 7.55 ± 1.18 ^d %; % cells, Late Apoptosis (AV+, PI+) ([5]; 4 × EC50, 24 h): 67.50 ± 2.05 ^d %; % cells, Necrosis (AV−, PI+) ([5]; 4 × EC50, 24 h): 13.80 ± 1.47%; CC50 at 24 h [6]: 313 ± 3.23 µM; SI (CC50/EC50) [7]: 12.00
2 | CC(C)(C)c1ccc(N/C(=N\C(=O)c2ccccc2)NCc2ccccc2)cc1 [LQOFG-6, (Z)-N-((benzylamine)((4-(tert-butyl)phenyl)amino)methylene)benzamide] | 21.1 ± 1.13 | 59.9 | 0.65 ± 0.19 | 0.18 ± 0.01 | 0.85 ± 0.09 | 0.46 ± 0.13 | 0.20 ± 0.03 | 1.47 ± 0.21 | 0.51 ± 0.08 | 0.32 ± 0.06 | 0.91 ± 0.34 | 0.20 ± 0.03 | 24.4 ± 0.76 | >1000 | 3.62 ± 0.39% | 17.10 ± 0.80% | 4.05 ± 0.22% | 20.00 ± 1.74% | 6.57 ± 1.20 | 5.72 ± 0.20 ^a % | % cells, Late Apoptosis (AV+, PI+) ([5]; 2 × EC50, 24 h): 25.50 ± 0.80%; % cells, Necrosis (AV−, PI+) ([5]; 2 × EC50, 24 h): 7.15 ± 0.21%; % cells, Early Apoptosis (AV+, PI−) ([5]; 4 × EC50, 24 h): 9.06 ± 0.70 ^d %; % cells, Late Apoptosis (AV+, PI+) ([5]; 4 × EC50, 24 h): 45.47 ± 1.30 ^d %; % cells, Necrosis (AV−, PI+) ([5]; 4 × EC50, 24 h): 8.14 ± 0.78%; CC50 at 24 h [6]: > 1000 µM; SI (CC50/EC50) [7]: >47.4
